Measurements reported in US8574831B2, “Mutational profiles in HIV-1 reverse transcriptase correlated with phenotypic drug resistance” (Virco N.V., priority 2000, dated 2013).

Test system: HIV with mutations in the HIV protease sequence
Experiment: Phenotypic fold resistance to protease inhibitors, protease mutations 84A/84L/84C/54M/54L/54V in a background (Examples 8-13)
Format: cell-based, HIV-1
Protocol: As is the case with the genotyping assays, the recombinant virus assay starts with the amplification of viral target sequences by means of PCR. The amplicons are incorporated into a proviral laboratory clone with sequences homologous to those present in the amplicon deleted. This generates a stock of chimeric viruses. The viruses are tested for their ability to grow in the presence of different concentrations of drugs. Results are obtained by calculating IC50 values for each inhibitor and by reporting the results as IC50 values, expressed in μM concentrations, or by computing the ratio of the IC50 values found for the chimeric virus to the IC50 values found for a wild type susceptible laboratory virus tested in parallel. In the latter case, resistance is expressed as “fold-resistance” compared to a wild-type susceptible HIV-1 strain. In order to meet the need for high-volume testing and a short turn-around time for an individual test, the latest generation of phenotyping assays has undergone further modifications. The use of reporter gene systems for susceptibility testing allows the implementation of laboratory automation and standardization. See Pauwels, et al., J. Virol. Methods 20, 309-321 (1998); Paulous, S., et al., International Workshop on HIV Drug Resistance, Treatment Strategies and Eradication, St. Petersburg, Fla., USA. Abstr. 46 (1997); and Deeks, S. G., et al., 2nd International Workshop on HIV Drug Resistance and Treatment Strategies, Lake Maggiore, Italy. Abstr. 53 (1998).
The ANTIVIROGRAM® assay (Virco) (WO 97/27480) is based on homologous recombination of patient derived HIV-1 gag/PR/RT sequences into a proviral HIV-1 clone correspondingly deleted for the gag/PR/RT sequences. See Pauwels, et al., J. Virol. Methods 20, 309-321 (1998). A similar assay (Phenosense ViroLogic) is based on enzymatic ligation of patient-derived PR/RT sequences into a correspondingly deleted proviral vector carrying an indicator gene, luciferase, inserted in the deleted HIV-1 envelope gene. See Deeks, S. G., et al., 2nd International Workshop on HIV Drug Resistance and Treatment Strategies, Lake Maggiore, Italy. Abstr. 53 (1998). Hertogs et al. Antimicrob. Agents Chemother. 44(3) 568-573 (2000) the disclosures of which are herein incorporated by reference.
The methods of monitoring HIV-1 drug resistance, may also be used in combination with phenotypic drug resistance testing of viral isolates. For example, in one embodiment, a phenotypic test is utilized that is based upon the construction of chimeric HIV-1 strains composed of the protease (PR) and reverse transcriptase (RT) gene sequences which are isolated and amplified from the patient viral RNA. These strains may subsequently be recombined inside CD4+ T cells with a standard laboratory isogenic (HXB2) HIV-1 DNA construct from which the PR/RT gene sequences were deleted. The recombinant strains may then be grown in the presence of the above-mentioned antiviral drugs and the susceptibility of the viral isolates may be expressed as fold-change value of the IC50 of the drug on the patient isolates over the IC50 of the drug on a wild-type laboratory reference strain.

SMILES: CC(C)CN(C[C@@H](O)[C@H](Cc1ccccc1)NC(=O)O[C@H]1CCOC1)S(=O)(=O)c1ccc(N)cc1 [Amprenavir, amprenavir]
- Fold change in IC50 (Table 12, V055199, genotype 10I + 33F + 54M + 90M): 38.7 fold
- Fold change in IC50 (Table 13, V19263, genotype 77I): 0.6 fold
- Fold change in IC50 (Table 13, V20160, genotype WT): 1.0 fold
- Fold change in IC50 (Table 13, V021667, genotype 10I): 1.1 fold
- Fold change in IC50 (Table 13, V030496, genotype 10I + 77I): 0.5 fold
- Fold change in IC50 (Table 13, V048868, genotype 10I + 54L + 71V + 77I + 90M): 4.1 fold
- Fold change in IC50 (Table 13, V048874, genotype 10I + 33F + 54L + 71V + 77I + 90M): 32.1 fold
- Fold change in IC50 (Table 13, V048875, genotype 10I + 33F + 54L + 71V + 77I + 90M): 24.6 fold
- Fold change in IC50 (Table 13, V048877, genotype 10I + 33F + 77I + 90M): 7.9 fold
- Fold change in IC50 (Table 13, V048880, genotype 10I + 33F + 77I + 90M): 3.8 fold
- Fold change in IC50 (Table 13, V052940, genotype 71V): 0.3 fold
- Fold change in IC50 (Table 13, V052942, genotype 10I + 71V): 0.5 fold
- Fold change in IC50 (Table 13, V052943, genotype 10I + 90M): 0.4 fold
- Fold change in IC50 (Table 13, V052944, genotype 10I + 90M): 0.7 fold
- Fold change in IC50 (Table 13, V052945, genotype 77I + 90M): 0.3 fold
- Fold change in IC50 (Table 13, V052946, genotype 71V + 90M): 0.5 fold
- Fold change in IC50 (Table 13, V052947, genotype 10I + 77I + 90M): 1.2 fold
- Fold change in IC50 (Table 13, V052948, genotype 10I + 71V + 90M): 2.0 fold
- Fold change in IC50 (Table 13, V052949, genotype 10I + 71V + 77I + 90M): 0.6 fold
- Fold change in IC50 (Table 13, V052950, genotype 33F): 0.7 fold
- Fold change in IC50 (Table 13, V052951, genotype 33F + 77I): 0.3 fold
- Fold change in IC50 (Table 13, V052953, genotype 10I + 33F + 77I): 1.5 fold
- Fold change in IC50 (Table 13, V052954, genotype 33F + 77I + 90M): 2.1 fold
- Fold change in IC50 (Table 13, V052955, genotype 33F + 71V + 90M): 2.7 fold
- Fold change in IC50 (Table 13, V052968, genotype 10L/I + 33F/L + 54L + 77I): 2.9 fold
- Fold change in IC50 (Table 13, V052969, genotype 10I + 33F + 54L + 90M): 10.4 fold
- Fold change in IC50 (Table 13, V052970, genotype 54L): 0.8 fold
- Fold change in IC50 (Table 13, V052971, genotype 10I + 54L): 2.6 fold
- Fold change in IC50 (Table 13, V052972, genotype 54L + 77I): 1.1 fold
- Fold change in IC50 (Table 13, V052973, genotype 10I + 54L + 77I): 2.1 fold
- Fold change in IC50 (Table 13, V052974, genotype 10I + 54L + 90M): 1.2 fold
- Fold change in IC50 (Table 13, V052975, genotype 10I + 54L + 71V + 90M): 6.2 fold
- Fold change in IC50 (Table 13, V052976, genotype 10I + 54L + 71V + 77I + 90M): 2.0 fold
- Fold change in IC50 (Table 13, V053832, genotype 10I + 33F): 0.6 fold
- Fold change in IC50 (Table 13, V053854, genotype 54L + 71V): 5.0 fold
- Fold change in IC50 (Virco ID 214846, genotype 10I + 33F + 54V + 71V + 77I + 90M, vs mean IC50 of wild type laboratory HIV strain): 4.2 fold
- Fold change in IC50 (Virco ID V021667, genotype 10I, vs mean IC50 of wild type laboratory HIV strain): 1.1 fold
- Fold change in IC50 (Virco ID V030496, genotype 10I + 77I, vs mean IC50 of wild type laboratory HIV strain): 0.5 fold
- Fold change in IC50 (Virco ID V048876, genotype 33F + 54V + 77I + 90M, vs mean IC50 of wild type laboratory HIV strain): 1.1 fold
- Fold change in IC50 (Virco ID V048877, genotype 10I + 33F + 77I + 90M, vs mean IC50 of wild type laboratory HIV strain): 7.9 fold
- Fold change in IC50 (Virco ID V048880, genotype 10I + 33F + 77I + 90M, vs mean IC50 of wild type laboratory HIV strain): 3.8 fold
- Fold change in IC50 (Virco ID V052940, genotype 71V, vs mean IC50 of wild type laboratory HIV strain): 0.3 fold
- Fold change in IC50 (Virco ID V052942, genotype 10I + 71V, vs mean IC50 of wild type laboratory HIV strain): 0.5 fold
- Fold change in IC50 (Virco ID V052943, genotype 10I + 90M, vs mean IC50 of wild type laboratory HIV strain): 0.4 fold
- Fold change in IC50 (Virco ID V052944, genotype 10I + 90M, vs mean IC50 of wild type laboratory HIV strain): 0.7 fold
- Fold change in IC50 (Virco ID V052946, genotype 71V + 90M, vs mean IC50 of wild type laboratory HIV strain): 0.5 fold
- Fold change in IC50 (Virco ID V052947, genotype 10I + 77I + 90M, vs mean IC50 of wild type laboratory HIV strain): 1.2 fold
- Fold change in IC50 (Virco ID V052948, genotype 10I + 71V + 90M, vs mean IC50 of wild type laboratory HIV strain): 2.0 fold
- Fold change in IC50 (Virco ID V052949, genotype 10I + 71V + 77I + 90M, vs mean IC50 of wild type laboratory HIV strain): 0.6 fold
- Fold change in IC50 (Virco ID V052950, genotype 33F, vs mean IC50 of wild type laboratory HIV strain): 0.7 fold
- Fold change in IC50 (Virco ID V052951, genotype 33F + 77I, vs mean IC50 of wild type laboratory HIV strain): 0.3 fold
- Fold change in IC50 (Virco ID V052953, genotype 10I + 33F + 77I, vs mean IC50 of wild type laboratory HIV strain): 1.5 fold
- Fold change in IC50 (Virco ID V052954, genotype 33F + 77I + 90M, vs mean IC50 of wild type laboratory HIV strain): 2.1 fold
- Fold change in IC50 (Virco ID V052955, genotype 33F + 71V + 90M, vs mean IC50 of wild type laboratory HIV strain): 2.7 fold
- Fold change in IC50 (Virco ID V052957, genotype 10I + 33F + 54V + 90M, vs mean IC50 of wild type laboratory HIV strain): 5.2 fold
- Fold change in IC50 (Virco ID V052958, genotype 10I + 33F + 54V + 77I + 90M, vs mean IC50 of wild type laboratory HIV strain): 7.8 fold
- Fold change in IC50 (Virco ID V052959, genotype 10I + 33F + 54V + 77I + 90M, vs mean IC50 of wild type laboratory HIV strain): 7.0 fold
- Fold change in IC50 (Virco ID V052960, genotype 10I + 33F + 54V + 71V + 90M, vs mean IC50 of wild type laboratory HIV strain): 6.4 fold
- Fold change in IC50 (Virco ID V052961, genotype 54V, vs mean IC50 of wild type laboratory HIV strain): 0.5 fold
- Fold change in IC50 (Virco ID V052962, genotype 10I + 54V, vs mean IC50 of wild type laboratory HIV strain): 0.5 fold
- Fold change in IC50 (Virco ID V052963, genotype 54V + 77I + 90M, vs mean IC50 of wild type laboratory HIV strain): 0.5 fold
- Fold change in IC50 (Virco ID V052964, genotype 54V + 71V + 90M, vs mean IC50 of wild type laboratory HIV strain): 0.3 fold
- Fold change in IC50 (Virco ID V052965, genotype 10I + 54V + 77I + 90M, vs mean IC50 of wild type laboratory HIV strain): 0.7 fold
- Fold change in IC50 (Virco ID V052966, genotype 10I + 54V + 71V + 90M, vs mean IC50 of wild type laboratory HIV strain): 1.5 fold
- Fold change in IC50 (Virco ID V052967, genotype 10I + 54V + 71V + 77I + 90M, vs mean IC50 of wild type laboratory HIV strain): 0.4 fold
- Fold change in IC50 (Virco ID V053358, genotype 33F + 54V + 77I + 90M, vs mean IC50 of wild type laboratory HIV strain): 1.0 fold
- Fold change in IC50 (Virco ID V053831, genotype 33F + 54V, vs mean IC50 of wild type laboratory HIV strain): 7.5 fold
- Fold change in IC50 (Virco ID V053832, genotype 10I + 33F, vs mean IC50 of wild type laboratory HIV strain): 0.6 fold
